# Test results from patent publication US12022844B2, “Nutritional composition, food/drink composition using nutritional composition, and modified milk powder using nutritional composition” (priority 2018, dated 2024).
# How the values were obtained:
# Type in all cases: cell-based
# [1] = test system: Lactobacillus paracasei ATCC 25302; assay: Mix-culturing with Bifidobacterium bifidum by HMO as sugar source, quantitative PCR; conditions: for Proliferation rate (number of bacteria after mix-culturing for 8 h/number of bacteria after single bacterial culturing): ATCC 25302^7 mix-cultured with Bifidobacterium bifidum (NITE BP-02429), sugar source 2%, Table 8; for Proliferation ratio of Lactobacillus paracasei ATCC 25302^T (mix-cultured bacteria after 8 h/single bacterial culturing 8 h): Table 12; for number of proliferating bacteria of Lactobacillus paracasei ATCC 25302^T in combination with seven strains of Bifidobacterium bifidum compared to single bacterium culture: summary of Table 12
# Experimental: (§1) A10% solution of glucose (manufactured by Nakarai Tesque Inc.), and 2′-FL ((≥95%) Funakoshi, available from sigma), and LNnT (manufactured by ELICITYL) as examples of HMOs was prepared with ion exchanged water, and was subjected to sterile filtration using Millex-GV (SLGV033RS).
# (§2) Lactobacilli MRS Broth (BD) (0.05% L-Cysteine Hydrochloride for Bacteria of the genus Bifidobacterium) was added to strains of Table 1 below (bacteria belonging to Bifidobacterium bifidum) and Table 2 below. After a sterilization treatment, 3% of the bacterial solution was inoculated, and anaerobically cultured (pre-pre cultured) at 37° C. for 16 h.
# (§3) The following day, 1% glucose was added to a modified BL agar medium (“Studies on Bifidobacteria” by Tomotari Mitsuoka, p. 306, Japan Bifidus Foundation, issued in 1994) noted in Table 3, for preparation. After a sterilization treatment, 3% of the pre-pre cultured bacterial solution was inoculated, and anaerobically pre-cultured (pre-cultured) at 37° C. for 12 h.
# (§4) The pre-cultured bacterial solution was collected and washed once with a sterile physiological saline solution. Then, mass-up was performed to an equal volume with the modified BL agar medium (“Studies on Bifidobacteria” by Tomotari Mitsuoka, p. 306, Japan Bifidus Foundation, issued in 1994) noted in Table 3 to prepare a suspended bacterial solution.
# (§5) The modified BL agar medium (“Studies on Bifidobacteria” by Tomotari Mitsuoka, p. 306, Japan Bifidus Foundation, issued in 1994) noted in Table 3 was prepared at a capacity of 60%, and was subjected to an autoclave sterilization treatment. Then, 40% of each sugar solution prepared in (1) was aseptically added so as to prepare a medium with a sugar concentration of 4%.
# (§6) The medium prepared in the above (3) was dispensed at a capacity that is half the capacity for aseptic culturing in a 96-well plate, and each of the bacterial solutions of strains of bacteria belonging to Bifidobacterium bifidum in Table 1 and probiotics having a low ability to assimilate human milk oligosaccharides in Table 2, which was prepared in the above (2), was dispensed at a remaining […] capacity into the medium prepared in the above (3) such that the bacterial solution had 12%. Then, a final sugar concentration was set to 2%. The plate into which the bacterial solution was dispensed was anaerobically cultured at 37° C. for 8 h.
# (§7) OD650 was measured from each well in the plates in the above (4) and the above (5) before (0 h) culturing and after (8 h) culturing, by MICROPLATE READER SH-9000 (manufactured by CORONA ELECTRIC). After turbidity measurement, microbial cells were collected, and DNA extraction was performed. After the DNA extraction, the number of proliferating bacteria of Bifidobacteria/lactobacilli was analyzed by using the bacterial species-specific primer noted in Table 4, by a quantitative PCR method (see “Structural analysis of intestinal flora”—analysis of bacterial flora in human feces using quantitative PCR—by Kouichi Watanabe, Enterobacteriological journal, 20:35-42, 2006).
# (§8) It was decided to culture Bifidobacterium bifidum (NITE BP-02429) in which availability of 2′-FL or LNnT was found as described above, in combination with strains in Table 2, which cannot use 2′-FL or LNnT. Bifidobacterium bifidum (NITE BP-02429) and the strains in Table 2, which cannot use 2′-FL or LNnT, were mix-cultured by 2′-FL or LNnT as a sugar source, and after culturing for 8 h, the proliferation rate of the number of bacteria of each strain (proliferation rate=the number of bacteria after mix-culturing for 8 h/the number of bacteria after single bacterial culturing) was measured by a quantitative PCR method using each strain-specific oligonucleotide primer noted in Table 4, for the strain in Table 2.
# Seven strains of Bifidobacterium bifidum in Table 1 and Lactobacillus paracasei ATCC 25302^T which cannot use 2′-FL or LNnT were mix-cultured by 2′-FL or LNnT as a sugar source. […]
# [2] = test system: Bifidobacterium longum subspecies longum BB536; assay: as above; conditions: for Proliferation rate (number of bacteria after mix-culturing for 8 h/number of bacteria after single bacterial culturing): BB536 mix-cultured with Bifidobacterium bifidum (NITE BP-02429), sugar source 2%, Table 8; for Proliferation rate of BB536 (mix-cultured bacteria after 8 h/single bacterial culturing 8 h): Table 9; for proliferation of BB536 through mix-culturing with bacteria belonging to Bifidobacterium bifidum: summary of Table 9
# Experimental: as §1, §2, §3, §4, §5, §6, §7, §8
# Seven strains of Bifidobacterium bifidum in Table 1 and Bifidobacterium longum subspecies longum BB536 which cannot use 2′-FL or LNnT were mix-cultured by 2′-FL or LNnT as a sugar source. […]
# [3] = test system: Bifidobacterium bifidum NITE BP-02433; assay: Single bacterial culturing with HMO as sugar source, OD650; conditions: sugar source 2%, anaerobic 37° C., 8 h, Table 5
# Experimental: as §1, §2, §3, §4, §5
# (§9) The medium prepared in the above (3) was dispensed at a capacity that is half the capacity for culturing in a 96-well plate, and the bacterial solution prepared in the above (2) was dispensed at a remaining half capacity such that the bacterial solution had 6%. Then, a final sugar concentration was set to 2%. The plate into which the bacterial solution was dispensed was anaerobically cultured at 37° C. for 8 h.
# as §7
# (§10) Regarding bacteria belonging to Bifidobacterium bifidum in Table 1, each strain was cultured as a single bacterium by 2′-FL or LNnT (HMOs) as a sugar source, and OD650 was measured. Table 5 illustrates OD650 increase values after seven strains of the bacteria belonging to Bifidobacterium bifidum in Table 1 were cultured for 8 h by 2′-FL or LNnT as a sugar source.
# [4] = test system: Bifidobacterium bifidum NITE BP-1252; assay: as above; conditions: sugar source 2%, anaerobic 37° C., 8 h, Table 5
# Experimental: as §1, §2, §3, §4, §5, §9, §7, §10
# [5] = test system: Bifidobacterium bifidum NITE BP-02431; assay: as above; conditions: sugar source 2%, anaerobic 37° C., 8 h, Table 5
# Experimental: as §1, §2, §3, §4, §5, §9, §7, §10
# [6] = test system: Bifidobacterium bifidum ATCC29521; assay: as above; conditions: ATCC 29521^T, sugar source 2%, anaerobic 37° C., 8 h, Table 5
# Experimental: as §1, §2, §3, §4, §5, §9, §7, §10
# [7] = test system: Bifidobacterium bifidum NITE P-02648; assay: as above; conditions: sugar source 2%, anaerobic 37° C., 8 h, Table 5
# Experimental: as §1, §2, §3, §4, §5, §9, §7, §10
# [8] = test system: Bifidobacterium bifidum NITE BP-02432; assay: as above; conditions: sugar source 2%, anaerobic 37° C., 8 h, Table 5
# Experimental: as §1, §2, §3, §4, §5, §9, §7, §10
# [9] = mix-cultured with Bifidobacterium bifidum ATCC 29521^T
# [10] = mix-cultured with Bifidobacterium bifidum NITE BP-1252
# [11] = mix-cultured with Bifidobacterium bifidum NITE BP-02429
# [12] = mix-cultured with Bifidobacterium bifidum NITE BP-02431
# [13] = mix-cultured with Bifidobacterium bifidum NITE BP-02432
# [14] = mix-cultured with Bifidobacterium bifidum NITE BP-02433
# [15] = mix-cultured with Bifidobacterium bifidum NITE P-02648
Compound,Proliferation rate (number of bacteria after mix-culturing for 8 h/number of bacteria after single bacterial culturing) [1],"Proliferation ratio of Lactobacillus paracasei ATCC 25302^T (mix-cultured bacteria after 8 h/single bacterial culturing 8 h) [1, 9]","Proliferation ratio of Lactobacillus paracasei ATCC 25302^T (mix-cultured bacteria after 8 h/single bacterial culturing 8 h) [1, 10]","Proliferation ratio of Lactobacillus paracasei ATCC 25302^T (mix-cultured bacteria after 8 h/single bacterial culturing 8 h) [1, 11]","Proliferation ratio of Lactobacillus paracasei ATCC 25302^T (mix-cultured bacteria after 8 h/single bacterial culturing 8 h) [1, 12]","Proliferation ratio of Lactobacillus paracasei ATCC 25302^T (mix-cultured bacteria after 8 h/single bacterial culturing 8 h) [1, 13]","Proliferation ratio of Lactobacillus paracasei ATCC 25302^T (mix-cultured bacteria after 8 h/single bacterial culturing 8 h) [1, 14]","Proliferation ratio of Lactobacillus paracasei ATCC 25302^T (mix-cultured bacteria after 8 h/single bacterial culturing 8 h) [1, 15]",number of proliferating bacteria of Lactobacillus paracasei ATCC 25302^T in combination with seven strains of Bifidobacterium bifidum compared to single bacterium culture [1],Proliferation rate (number of bacteria after mix-culturing for 8 h/number of bacteria after single bacterial culturing) [2],"Proliferation rate of BB536 (mix-cultured bacteria after 8 h/single bacterial culturing 8 h) [2, 9]","Proliferation rate of BB536 (mix-cultured bacteria after 8 h/single bacterial culturing 8 h) [2, 10]","Proliferation rate of BB536 (mix-cultured bacteria after 8 h/single bacterial culturing 8 h) [2, 11]","Proliferation rate of BB536 (mix-cultured bacteria after 8 h/single bacterial culturing 8 h) [2, 12]","Proliferation rate of BB536 (mix-cultured bacteria after 8 h/single bacterial culturing 8 h) [2, 13]","Proliferation rate of BB536 (mix-cultured bacteria after 8 h/single bacterial culturing 8 h) [2, 14]","Proliferation rate of BB536 (mix-cultured bacteria after 8 h/single bacterial culturing 8 h) [2, 15]",proliferation of BB536 through mix-culturing with bacteria belonging to Bifidobacterium bifidum [2],OD650 increase value [3],OD650 increase value [4],also measured
2′-fucosyllactose [2′-FL],6.92,2.28,1.98,4.21,3.25,2.01,3.23,4.23,promoted,4.30,1.35,3.17,4.13,6.33,3.16,5.90,9.97,proliferates,0.431,0.225,OD650 increase value [5]: 0.037; OD650 increase value [6]: 0.060; OD650 increase value [7]: 0.470; OD650 increase value [8]: 0.430
"CC(=O)N[C@H]1[C@H](O[C@H]2[C@@H](O)[C@@H](CO)O[C@@H](O[C@H]3[C@H](O)[C@@H](O)C(O)O[C@@H]3CO)[C@@H]2O)O[C@H](CO)[C@@H](O[C@@H]2O[C@H](CO)[C@H](O)[C@H](O)[C@H]2O)[C@@H]1O (mixture of isomers) [LNnT, lacto-N-neotetraose]",4.23,4.26,9.18,8.04,10.10,8.76,8.85,14.78,promoted,2.13,1.07,1.64,3.57,3.02,1.51,3.08,4.95,proliferates,0.370,0.373,OD650 increase value [5]: 0.535; OD650 increase value [6]: 0.008; OD650 increase value [7]: 0.719; OD650 increase value [8]: 0.522
